# According to patent publication US8361968B2 (Takeda Pharmaceutical Company Limited, priority 2002, dated 2013):
# Square brackets hold non-standard residues; d marks the D form. Peptide text beside a SMILES is read from it. * marks the point of attachment. Propanoyl(3-(3-pyridyl)) = O=C(CCc1cccnc1)*; Arg(Me) = CNC(=N)NCCC[C@H](N)C(=O)O; d4Pal = N[C@H](Cc1ccncc1)C(=O)O; azaGly = NNC(=O)O
# Legend:
# immature rat = assay: Induction of ovulation in immature rat using metastin derivatives; format: in vivo, rats; conditions: for number of oocytes in average per rat / dose to be administered for induction of ovulation equivalent to hCG: eCG-primed immature female rats; for dose to be administered for induction of ovulation equivalent to hCG: s.c.
# Description: Equine chorionic gonadotropin (eCG, serotropin, Dainippon Pharmaceutical Co., Ltd.) was dissolved in saline (Otsuka Pharmaceutical Co., Ltd.) in a concentration of 100 IU/mL. Using a 1 mL tuberculin syringe with a 26-gauge needle (both by Terumo Co., Ltd.), eCG was subcutaneously injected into the dorsal area of female Wistar rats of 23 days old after birth (Charles River Japan, Inc.) in a dose of 10 IU/animal, during 9:00 to 10:00 AM. As shown below, the animal was grouped 47 to 48 hours after the eCG injection and the drugs were given to these groups, respectively.
# Group B (5 rats): Compound No. 305 was dissolved in saline at 33.3 nmol/mL and the solution was subcutaneously injected into the back in a dose of 6.7 nmol/animal.
# Group C (5 rats): Compound No. 305 was dissolved in saline at 10.0 nmol/mL and the solution was subcutaneously injected into the back in a dose of 2.0 nmol/animal.
# Group D (5 rats): Compound No. 322 was dissolved in saline at 33.3 nmol/mL and the solution was subcutaneously injected into the back in a dose of 6.7 nmol/animal.
# Group E (5 rats): Compound No. 322 was dissolved in saline at 10.0 nmol/mL and the solution was subcutaneously injected into the back in a dose of 2.0 nmol/animal.
# Group F (6 rats): Saline was subcutaneously injected into the back in a dose of 200 μL/animal.
# After administration of these drugs, the animal was sacrificed by decapitation after 24 to 25 hours to recover blood, bilateral oviducts and uterus. In collecting the blood, 90 μL of 10 KIU/mL aprotinin solution (Trasylol, Bayer) containing 3 mg/ml EDTA had been previously filled in a tube for recovery to prevent blood clotting. After blood recovery, the blood was thoroughly blended and the mixture was centrifuged at 2,000 G for 25 minutes. The supernatant was recovered and used as a plasma sample.
# The number of oocytes was counted by referring to the method described in Eur. J. Endocrinol., 138, 594-600 (1998). That is, where retained oocytes in the oviducal ampulla were confirmed by stereomicroscopic observation of the oviduct, the ampulla was punctured with a 27-gauge syringe needle (Terumo) to retrieve the oocytes. After granulosa cells surrounding the oocytes were removed by trypsin treatment, the number of oocytes was counted. Where the retained oocytes in the oviducal ampulla were not confirmed by stereomicroscopic observation of the oviduct, a 27-gauge syringe needle with the polished tip was inserted into the tubal ostium and more than 400 μL of saline was flushed into the oviduct and uterine for rinsing. Then, the presence or absence of oocytes in the effluent was observed.
# hOT7T175 = hOT7T175 (Homo sapiens, UniProt Q969F8, L364H); assay: Intracellular Ca ion level-increasing activity using FLIPR in hOT7T175/CHO; format: cell-based; parameters: expressed in transfected cells; host or cells: CHO/dhfr- cells, obtained from ATCC; conditions: relative, Metastin (1-54) = 1
# Sequence of hOT7T175 (Q969F8 whole entry L364H): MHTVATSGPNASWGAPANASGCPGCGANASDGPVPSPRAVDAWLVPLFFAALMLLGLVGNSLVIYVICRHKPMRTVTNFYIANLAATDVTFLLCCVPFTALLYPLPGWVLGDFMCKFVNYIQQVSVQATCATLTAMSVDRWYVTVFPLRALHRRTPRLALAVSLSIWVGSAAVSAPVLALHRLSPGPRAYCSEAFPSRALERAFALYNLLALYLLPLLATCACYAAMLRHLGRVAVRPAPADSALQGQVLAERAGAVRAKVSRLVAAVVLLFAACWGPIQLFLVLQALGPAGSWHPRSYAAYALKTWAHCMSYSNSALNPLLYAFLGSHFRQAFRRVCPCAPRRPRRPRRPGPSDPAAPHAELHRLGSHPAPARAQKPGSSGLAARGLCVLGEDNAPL
SMILES,level of estradiol contained in plasma (immature rat; 2.0 nmol/animal s.c. (FIG. 21)),level of progesterone in blood (immature rat; 2.0 nmol/animal s.c. (FIG. 22)),level of estradiol contained in plasma (immature rat; 6.7 nmol/animal s.c. (FIG. 21)),level of progesterone in blood (immature rat; 6.7 nmol/animal s.c. (FIG. 22)),number of oocytes in average per rat (immature rat; 2.0 nmol/animal s.c.) [oocytes],number of oocytes in average per rat (immature rat; 6.7 nmol/animal s.c.) [oocytes],dose to be administered for induction of ovulation equivalent to hCG (immature rat),Specific Activity (intracellular Ca ion level-increasing activity) (hOT7T175),rats ovulated (immature rat; 2.0 nmol/animal s.c.)
"CNC(=N)NCCC[C@H](NC(=O)[C@H](CC(C)C)NC(=O)NNC(=O)[C@H](Cc1ccccc1)NC(=O)[C@H](CO)NC(=O)[C@H](CC(N)=O)NC(=O)[C@@H](Cc1ccncc1)NC(=O)[C@H](N)Cc1ccc(O)cc1)C(=O)N[C@@H](Cc1ccccc1)C(N)=O [Compound No. 305, D-Tyr-D-Pya(4)-Asn-Ser-Phe-AzaGly-Leu-Arg(Me)-Phe-NH2] (H-[dY][d4Pal]NSF[azaGly]L[Arg(Me)]F-NH2)",no difference,less than a half of the level in Group A,no difference,less than a half of the level in Group A,29.4,32.6,at least 2.0 nmol/animal,5,–
"CNC(=N)NCCC[C@H](NC(=O)[C@H](CC(C)C)NC(=O)NNC(=O)[C@H](Cc1ccccc1)NC(=O)[C@H](CO)NC(=O)[C@H](CC(N)=O)NC(=O)CCc1cccnc1)C(=O)N[C@@H](Cc1ccccc1)C(N)=O [Compound No. 322, 3-Pyridylpropionyl-Asn-Ser-Phe-AzaGly-Leu-Arg(Me)-Phe-NH2] ({Propanoyl(3-(3-pyridyl))}-NSF[azaGly]L[Arg(Me)]F-NH2)",tendency to show a higher level in rats with no ovulation induction,very low level,no difference,less than a half of the level in Group A,11.6,29.6,at least 6.7 nmol/animal,1,3 out of 5
